Experimental findings from US10239832B2, “N-(1-hydroxy-3-(pyrrolidinyl)propan-2-yl)pyrrolidine-3-carboxamide derivatives as glucosylceramide synthase inhibitors” (BIOMARIN PHARMACEUTICAL INC., priority 2013, dated 2019) are described below.

This assay has as its target T1, GCS (Canis lupus familiaris, UniProt A0A8I3MXG6).
T1 construct: endogenous in cells; host or cells: MDCK (Madin-Darby canine kidney) cells, whole-cell lysate
T1 sequence (A0A8I3MXG6 1-394): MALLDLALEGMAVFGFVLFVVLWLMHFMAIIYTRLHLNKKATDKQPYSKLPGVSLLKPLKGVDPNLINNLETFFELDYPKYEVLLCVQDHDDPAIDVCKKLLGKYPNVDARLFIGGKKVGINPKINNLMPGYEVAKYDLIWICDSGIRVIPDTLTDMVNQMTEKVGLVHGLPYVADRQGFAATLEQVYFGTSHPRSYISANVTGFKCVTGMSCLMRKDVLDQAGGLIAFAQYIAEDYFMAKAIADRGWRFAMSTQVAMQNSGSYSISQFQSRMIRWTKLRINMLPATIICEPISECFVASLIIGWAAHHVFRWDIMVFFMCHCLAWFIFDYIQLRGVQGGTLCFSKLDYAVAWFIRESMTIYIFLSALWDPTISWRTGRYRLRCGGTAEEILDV
As to the kind of experiment: GCS enzymatic assay (MDCK cell lysate, NBD-ceramide to glucosylceramide, LC/MS). In kind it is biochemical, canine. Particulars: Table 2, the table does not say which of the assays; for IC50: class symbols A, B, C, read-out: Data Range (IC50 values); for Data Range (% inhibition): class symbols D, E, F, NA (not active). A digest of the protocol:
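IC50 or percent inhibition came from LC/MS/MS (ESI+, MRM) of NBD-ceramide and glucosylceramide, with tolbutamide as internal standard. The reaction used MDCK (canine) cell lysate as the enzyme source and was ended with acetonitrile. Mock wells received 0.1% DMSO.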

On to `O=C(N[C@H](CN1CCCC1)[C@H](O)c1ccc(OC2CC2)c(Cl)c1)[C@@H]1CCN(c2ccc(Cl)c(Oc3ccccn3)c2)C1` [Compound 103, (R)-1-(4-chloro-3-(pyridin-2-yloxy)phenyl)-N-((1R,2R)-1-(3-chloro-4-cyclopropoxyphenyl)-1-hydroxy-3-(pyrrolidin-1-yl)propan-2-yl)pyrrolidine-3-carboxamide], for which the IC50 lay in the range of 1 to 30 nM.

Regarding `O=C(N[C@H](CN1CCCC1)[C@H](O)c1cc(F)c2c(c1)OCCO2)[C@@H]1CCN(c2ccc3cc(Cl)ccc3n2)C1` [Compound 104, (R)-1-(6-chloroquinolin-2-yl)-N-((1R,2R)-1-(8-fluoro-2,3-dihydrobenzo[b][1,4]dioxin-6-yl)-1-hydroxy-3-(pyrrolidin-1-yl)propan-2-yl)pyrrolidine-3-carboxamide], the IC50 is 1 to 30 nM.

Consider `O=C(N[C@H](CN1CCCC1)[C@H](O)c1cc(F)c2c(c1)OCCO2)[C@@H]1CCN(c2ccc(Cl)c(Oc3ccccn3)c2)C1` [Compound 105, (R)-1-(4-chloro-3-(pyridin-2-yloxy)phenyl)-N-((1R,2R)-1-(8-fluoro-2,3-dihydrobenzo[b][1,4]dioxin-6-yl)-1-hydroxy-3-(pyrrolidin-1-yl)propan-2-yl)pyrrolidine-3-carboxamide], for which the IC50 fell in the range of 1 to 30 nM.

Consider `O=C(N[C@H](CN1CCCC1)[C@H](O)c1ccc2c(c1)OCCO2)[C@@H]1CCN(c2ccc3cccnc3c2)C1` [Compound 106, (R)-N-((1R,2R)-1-(2,3-dihydrobenzo[b][1,4]dioxin-6-yl)-1-hydroxy-3-(pyrrolidin-1-yl)propan-2-yl)-1-(quinolin-7-yl)pyrrolidine-3-carboxamide], for which the “Data Range (% inhibition)” value is recorded as “D (75-100%)”.

As to `CC(C)(O)COc1ccc([C@@H](O)[C@@H](CN2CCCC2)NC(=O)[C@@H]2CCN(c3ccc4ccccc4c3)C2)cc1Cl` [Compound 107, (R)-N-((1R,2R)-1-(3-chloro-4-(2-hydroxy-2-methylpropoxy)phenyl)-1-hydroxy-3-(pyrrolidin-1-yl)propan-2-yl)-1-(naphthalen-2-yl)pyrrolidine-3-carboxamide], the IC50 lay within 1 to 30 nM.

Turning to `O=C(N[C@H](CN1CCC1)[C@H](O)c1cc(F)c2c(c1)OCCO2)[C@@H]1CCN(c2ccc3cc(Cl)sc3c2)C1` [Compound 108, (R)-N-((1R,2R)-3-(azetidin-1-yl)-1-(8-fluoro-2,3-dihydrobenzo[b][1,4]dioxin-6-yl)-1-hydroxypropan-2-yl)-1-(2-chlorobenzo[b]thiophen-6-yl)pyrrolidine-3-carboxamide], the IC50 fell in the range of 1 to 30 nM.

Consider `O=C(N[C@H](CN1CCCC1)[C@H](O)c1ccc(OC2CC2)c(Cl)c1)[C@@H]1CCN(c2ccc3cc(Cl)sc3c2)C1` [Compound 109, (R)-N-((1R,2R)-1-(3-chloro-4-cyclopropoxyphenyl)-1-hydroxy-3-(pyrrolidin-1-yl)propan-2-yl)-1-(2-chlorobenzo[b]thiophen-6-yl)pyrrolidine-3-carboxamide], for which the IC50 was in the range of 30 to 100 nM.

Consider `O=C(N[C@H](CN1CCCC1)[C@H](O)c1ccc2c(c1)OCCO2)[C@@H]1CCN(c2ccc(Cl)c(Oc3ccccn3)c2)C1` [Compound 110, (R)-1-(4-chloro-3-(pyridin-2-yloxy)phenyl)-N-((1R,2R)-1-(2,3-dihydrobenzo[b][1,4]dioxin-6-yl)-1-hydroxy-3-(pyrrolidin-1-yl)propan-2-yl)pyrrolidine-3-carboxamide], for which the IC50 fell in the range of 1 to 30 nM.

`O=C(N[C@H](CN1CCCC1)[C@H](O)c1cc(F)c2c(c1)OCCO2)[C@@H]1CCN(c2ccc3cc(Cl)sc3c2)C1` [Compound 111, (R)-1-(2-chlorobenzo[b]thiophen-6-yl)-N-((1R,2R)-1-(8-fluoro-2,3-dihydrobenzo[b][1,4]dioxin-6-yl)-1-hydroxy-3-(pyrrolidin-1-yl)propan-2-yl)pyrrolidine-3-carboxamide]: the IC50 was in the range of 1 to 30 nM.

For the molecule `O=C(N[C@H](CN1CCCC1)[C@H](O)c1ccc(OC2CC2)c(Cl)c1)[C@@H]1CCN(c2cccc(Oc3ccc(Cl)cc3)n2)C1` [Compound 112, (R)-N-((1R,2R)-1-(3-chloro-4-cyclopropoxyphenyl)-1-hydroxy-3-(pyrrolidin-1-yl)propan-2-yl)-1-(6-(4-chlorophenoxy)pyridin-2-yl)pyrrolidine-3-carboxamide], the IC50 is 1 to 30 nM.

As for `O=C(N[C@H](CN1CCCC1)[C@H](O)c1ccc2c(c1)OCCO2)[C@@H]1CCN(c2cccc(Oc3ccc(Cl)cc3)n2)C1` [Compound 113, (R)-1-(6-(4-chlorophenoxy)pyridin-2-yl)-N((1R,2R)-1-(2,3-dihydrobenzo[b][1,4]dioxin-6-yl)-1-hydroxy-3-(pyrrolidin-1-yl)propan-2-yl)pyrrolidine-3-carboxamide], the IC50 fell in the range of 1 to 30 nM.

On to `O=C(N[C@H](CN1CCCC1)[C@H](O)c1cc(F)c2c(c1)OCCO2)[C@@H]1CCN(c2cccc(Oc3ccc(Cl)cc3)n2)C1` [Compound 114, (R)-1-(6-(4-chlorophenoxy)pyridin-2-yl)-N((1R,2R)-1-(8-fluoro-2,3-dihydrobenzo[b][1,4]dioxin-6-yl)-1-hydroxy-3-(pyrrolidin-1-yl)propan-2-yl)pyrrolidine-3-carboxamide], for which the IC50 fell in the range of 1 to 30 nM.

With `O=C(N[C@H](CN1CCCC1)[C@H](O)c1ccc(OC2CC2)c(Cl)c1)[C@@H]1CCN(c2cccc(Oc3ccc(F)cc3)n2)C1` [Compound 115, (R)-N-((1R,2R)-1-(3-chloro-4-cyclopropoxyphenyl)-1-hydroxy-3-(pyrrolidin-1-yl)propan-2-yl)-1-(6-(4-fluorophenoxy)pyridin-2-yl)pyrrolidine-3-carboxamide], the IC50 lay within 1 to 30 nM.

In the case of `O=C(N[C@H](CN1CCCC1)[C@H](O)c1cc(F)c2c(c1)OCCO2)[C@@H]1CCN(c2cccc(Oc3ccc(F)cc3)n2)C1` [Compound 116, (R)-N-((1R,2R)-1-(8-fluoro-2,3-dihydrobenzo[b][1,4]dioxin-6-yl)-1-hydroxy-3-(pyrrolidin-1-yl)propan-2-yl)-1-(6-(4-fluorophenoxy)pyridin-2-yl)pyrrolidine-3-carboxamide], the IC50 lay within 1 to 30 nM.

As to `O=C(N[C@H](CN1CCCC1)[C@H](O)c1ccc(OC2COC2)c(Cl)c1)[C@@H]1CCN(c2ccc3cc(F)ccc3c2)C1` [Compound 117, (R)-N-((1R,2R)-1-(3-chloro-4-(oxetan-3-yloxy)phenyl)-1-hydroxy-3-(pyrrolidin-1-yl)propan-2-yl)-1-(6-fluoronaphthalen-2-yl)pyrrolidine-3-carboxamide], the IC50 is 1 to 30 nM.

As for `O=C(N[C@H](CN1CCCC1)[C@H](O)c1ccc(OC2CC2)c(Cl)c1)[C@@H]1CCN(c2cc(Oc3ccccn3)ccc2Cl)C1` [Compound 118, (R)-N-((1R,2R)-1-(3-chloro-4-cyclopropoxyphenyl)-1-hydroxy-3-(pyrrolidin-1-yl)propan-2-yl)-1-(2-chloro-5-(pyridin-2-yloxy)phenyl)pyrrolidine-3-carboxamide], the IC50 was 1 to 30 nM.

For the molecule `O=C(N[C@H](CN1CCCC1)[C@H](O)c1ccc2c(c1)OCCO2)[C@@H]1CCN(c2cccc(Oc3ccc(F)cc3)n2)C1` [Compound 119, (R)-N-((1R,2R)-1-(2,3-dihydrobenzo[b][1,4]dioxin-6-yl)-1-hydroxy-3-(pyrrolidin-1-yl)propan-2-yl)-1-(6-(4-fluorophenoxy)pyridin-2-yl)pyrrolidine-3-carboxamide], the IC50 lay in the range of 1 to 30 nM.

In the case of `O=C(N[C@H](CN1CCCC1)[C@H](O)c1cc(F)c2c(c1)OCCO2)[C@@H]1CCN(C(=O)c2ccccc2)C1` [Compound 120, (R)-1-benzoyl-N-((1R,2R)-1-(8-fluoro-2,3-dihydrobenzo[b][1,4]dioxin-6-yl)-1-hydroxy-3-(pyrrolidin-1-yl)propan-2-yl)pyrrolidine-3-carboxamide], the “Data Range (% inhibition)” value was “F (1-49% (or less than 50%))”.

`O=C(N[C@H](CN1CCCC1)[C@H](O)c1ccc2c(c1)OCCO2)[C@@H]1CCN(C(=O)c2ccccc2)C1` [Compound 121, (R)-1-benzoyl-N-((1R,2R)-1-(2,3-dihydrobenzo[b][1,4]dioxin-6-yl)-1-hydroxy-3-(pyrrolidin-1-yl)propan-2-yl)pyrrolidine-3-carboxamide]: the “Data Range (% inhibition)” value is on record as “NA (not active—a negative value was generated for % inhibition)”.

Turning to `O=C(N[C@H](CN1CCC1)[C@H](O)c1ccc(OC2COC2)c(Cl)c1)[C@@H]1CCN(c2ccc3cc(F)ccc3c2)C1` [Compound 122, (R)-N-((1R,2R)-3-(azetidin-1-yl)-1-(3-chloro-4-(oxetan-3-yloxy)phenyl)-1-hydroxypropan-2-yl)-1-(6-fluoronaphthalen-2-yl)pyrrolidine-3-carboxamide], the concentration for half-maximal inhibition (IC50) lay in the range of 1 to 30 nM.

Consider `O=C(N[C@H](CN1CCCC1)[C@H](O)c1ccc2c(c1)OCCO2)[C@@H]1CCN(c2cccc(-c3ccc(F)cc3)n2)C1` [Compound 123, (R)-N-((1R,2R)-1-(2,3-dihydrobenzo[b][1,4]dioxin-6-yl)-1-hydroxy-3-(pyrrolidin-1-yl)propan-2-yl)-1-(6-(4-fluorophenyl)pyridin-2-yl)pyrrolidine-3-carboxamide], for which the half-inhibitory concentration (IC50) lay in the range of 1 to 30 nM.

On to `O=C(N[C@H](CN1CCCC1)[C@H](O)c1cc(F)c2c(c1)OCCO2)[C@@H]1CCN(c2cccc(-c3ccc(F)cc3)n2)C1` [Compound 124, (R)-N-((1R,2R)-1-(8-fluoro-2,3-dihydrobenzo[b][1,4]dioxin-6-yl)-1-hydroxy-3-(pyrrolidin-1-yl)propan-2-yl)-1-(6-(4-fluorophenyl)pyridin-2-yl)pyrrolidine-3-carboxamide], for which the IC50 fell in the range of 1 to 30 nM.

What is called IC50 is the concentration that inhibits the measured activity by half.
